From patent US20180049984A1 (priority 2014, published 2018) come the findings set out here.

In the assay the test system is Bp. Further details: species or system BALB/c mice. The following applies: mouse, in vivo.

A value given as a limit tells only on which side of the number the result lay.

Take “gentamicin [free (i.e., unencapsulated) gentamicin]”: the “bacterial burdens in lungs, livers, and spleens” value is 10^3-10^5 CFUs/organ; the “time to death of all mice after infection” value is ≤ 4 days.
